Data taken from PubChem BioAssay AID179 (DTP/NCI, 2004).
Several values for one entry are separate records, joined by “and”; a condition that tells them apart may be missing. Equal entries are not always repeated. Activity calls are given as the source filed them.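 How the source made its calls: active means compounds giving half or more protection of infected cells from virus-caused growth loss, again on retest; inactive means the rest.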 Where a SMILES comes first, the peptide text is derived from it.

Tested on: CEM cells HIV-1 protection, formazan growth assay
Experiment: NCI AIDS Antiviral Assay
Details: for IC50: measured here: growth of uninfected CEM cells
Method in brief: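 Human CEM cells, uninfected and HIV-1-infected, received five drug concentrations, and growth was read by soluble formazan assay. Compounds giving at least 50% protection were retested; reproducible 100% protection defined confirmed active.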

SMILES | outcome | EC50 [µM] | IC50
CCCCNC(=S)OCCC(C)CCCC(C)C (configuration not stated) | inactive | – | –
CC(C)(C)[Si](C)(C)OC[C@H]1O[C@@H](n2ccc(=O)[nH]c2=O)C[C@]12CCN(O)CO2 | – | > 200 | 105 µM
CSC(SC)=C1CC(=O)Nc2ccccc2C1=O | – | > 200 | 58.9 µM
COc1cc(-c2oc3c(OC)cc(OC)c(O)c3c(=O)c2OC)cc(OC)c1OC | – | > 200 | > 200 µM
COc1c(Cc2ccccc2O)c(O)c(Cc2cc(Cc3ccccc3O)ccc2O)c(O)c1C(=O)CCc1ccccc1 | – | > 60.3 | 21.4 µM
O=C(c1ccccc1)C1C(c2ccccc2)SC(c2ccccc2)CC1(O)c1ccccc1 (configuration not stated) | – | > 151 | 20.9 µM
O=[N+]([O-])c1cc(S(=O)(=O)c2ccc(N(CCO)CCO)c([N+](=O)[O-])c2)ccc1N(CCO)CCO | – | > 200 | 35.5 µM
COc1ccc(C(c2c(O)c3ccccc3oc2=O)N2CCCC2)c(OC)c1 (configuration not stated) | – | > 200 | 95.5 µM
Cc1noc(NS(=O)(=O)c2ccc(NC(=O)c3ccc4[nH]c5ccccc5c(=O)c4c3)cc2)c1C | – | > 200 | 44.7 µM
N#CNC(N)=Nc1ccc(Cl)cc1 | inactive | – | –
CC(NC(=O)CNC(=O)C(N)CO)C(=O)NC(CCC(N)=O)C(=O)NC(CCC(=O)O)C(=O)NC(C)C(=O)NC(CCC(=O)O)C(=O)NC(CCCCN)C(=O)NC(CCC(N)=O)C(=O)NC(CCCN=C(N)N)C(=O)NC(C(=O)NC(CC(N)=O)C(=O)NC(C)C(=O)NC(Cc1cnc[nH]1)C(=O)NC(CO)C(=O)O)C(C)O (configuration not stated) (H-SGAQEAEKQRTNAHS-OH; configuration not given here) | – | > 100 | > 100 µM
C=C([C@@]1(O)C[C@H]2[C@H](CCC2(OC)OC)[C@@H]2c3ccccc3O[C@@H]21)[Si](C)(C)C | inactive | – | –
CN1C(=O)[C@@]2(C=CC3(CC2)OCCO3)c2ccccc21 | – | > 200 | 35.5 µM
Clc1ccc(-c2c(C3=NCCN3)nnn2-c2ccccc2)cc1 | – | > 214 | 174 µM
O=[N+]([O-])/N=c1/nc2scc(-c3ccc([N+](=O)[O-])cc3)n2s1 | – | > 200 | 29.5 µM
O/N=C\c1c2c(cc3c1CCC3)CCC2 | – | > 200 | > 200 µM
CN1CCCS/C1=C1/SC(=S)N(c2ccccc2)C1=O | – | > 30.9 | > 30.9 µM
[O]=[Sb]([OH])([OH])[c]1ccccc1 | – | > 200 | 77.6 µM and > 200 µM
O=Nc1c(O)cc(O)c2ccccc12 | inactive | – | –
CCC(CC)(CC(=O)O)CC(=O)O | inactive | – | –
COC1OC(C(C)O)C2OC(C)(C)OC12 (configuration not stated) | – | > 200 | > 200 µM
O=C(CSc1ncn[nH]1)C[P+](c1ccccc1)(c1ccccc1)c1ccccc1 | inactive | – | –

SMILES | outcome | EC50 [µM] | IC50
O=C1CC2[C@@H](N3CCCC3)CCC(N1Cc1ccccc1)C2(O)O (some centres not stated) | – | > 200 | > 200 µM
Cc1ccc(NC(=O)/C(=N\Nc2ccc([N+](=O)[O-])cc2[N+](=O)[O-])C2C(=O)NC(=O)NC2=O)cc1 | inactive | – | –
CNc1nnc(CNc2ccc(-c3nnc(NC)n3N)cc2)n1N | – | > 200 | > 200 µM
S=C(N/N=C\c1ccccn1)N/N=C\c1ccccn1 | – | > 2 | 0.813 µM
CS/C(=N\c1nccs1)NC(=O)c1cccc(Cl)c1 | – | > 58.9 | > 58.9 µM
CCCCCCCCCCCC(=O)Oc1c(Cl)cc(Cl)c(OC(=O)C(=O)Oc2c(Cl)cc(Cl)c(OC(=O)CCCCCCCCCCC)c2Cl)c1Cl | inactive | – | –
CC(C)=C[C@@H]1C[C@H](C)[C@H]2CC[C@H](C)[C@H]3C(=O)C(O)=C(C)C(=O)[C@]123 | – | > 200 | 105 µM
CCC1(OC(=O)CN2CCN(CCO)CC2)C(=O)OCc2c1cc1n(c2=O)Cc2cc3ccccc3nc2-1 (configuration not stated) | – | > 10 | 0.0912 µM
COC(=O)/C=C/C(=O)C1C(C(=O)OC)C2(C(=O)OC)CCC1(C(=O)OC)N2 (configuration not stated) | inactive | – | –
CSc1ccc(C(=O)C(=O)c2ccc(SC)s2)s1 | – | > 200 | 155 µM
C/C(=N\NC(N)=O)c1ccc(Cl)cc1 | – | > 123 | > 123 µM
Cc1c/c(=N/NC(=O)c2ccncc2)n2nc(N)sc2n1 | – | > 200 | > 200 µM
FC1C2=C(SC1(F)F)C1CCC2C1 (configuration not stated) | – | > 200 | > 200 µM
O=C(Oc1ccc(OC(=O)c2ccccc2)c(C(=O)c2ccccc2)c1C(=O)c1ccccc1)c1ccccc1 | – | > 200 | > 200 µM
COP(=O)(OC)/C(=C\C1=CN(C(c2ccccc2)(c2ccccc2)c2ccccc2)CN1)NC=O | – | > 200 | 21.4 µM
CC(C)CCCC(C)C1CCC2C3CCC(=O)C(C)(CCCNCCO)C3CCC12C (configuration not stated) | – | > 20 | 2.88 µM
Nc1nc(N)c(CCCCc2ccc([N+](=O)[O-])cc2)c(N)n1 | inactive | – | –
C1OC2OCC1O2 | – | > 2450 | > 2450 µM
CN1CN(c2ccccc2)C2(CCN(CCCSc3ccccc3NC(=O)/C=C/c3ccccc3)CC2)C1=O | – | > 200 | 3.31 µM
CC(=O)OCN(C)c1nc(N(C)COC(C)=O)nc(N(C)COC(C)=O)n1 | – | > 50.1 | > 50.1 µM
O=C(COC(=O)c1cccc2c(=O)c3ccccc3[nH]c12)Nc1ccc(C(=O)O)cc1 | inactive | – | –
C#CC(O)CS(=O)(=O)c1ccccc1 (configuration not stated) | – | > 100 | > 100 µM
